Data as given in ChEMBL document CHEMBL5528049, “Discovery of (4-Pyrazolyl)-2-aminopyrimidines as Potent and Selective Inhibitors of Cyclin-Dependent Kinase 2” (J Med Chem, 2024).

Key:
[1] = Half-life in cynomolgus monkey at 0.3 mg/kg, iv administered as cassette dose and measured upto 24 hrs by LC-MS/MS analysis; type: ADME, organism-based, Macaca fascicularis; details: in vivo
[2] = molecular target: Cytochrome P450 2D6 (Homo sapiens, UniProt P10635); assay: Inhibition of CYP2D6 in human liver microsomes using bufuralol as substrate in presence of NADPH by LC-MS/MS analysis; type: ADME, Microsome
Chain of Cytochrome P450 2D6 (P10635 whole entry): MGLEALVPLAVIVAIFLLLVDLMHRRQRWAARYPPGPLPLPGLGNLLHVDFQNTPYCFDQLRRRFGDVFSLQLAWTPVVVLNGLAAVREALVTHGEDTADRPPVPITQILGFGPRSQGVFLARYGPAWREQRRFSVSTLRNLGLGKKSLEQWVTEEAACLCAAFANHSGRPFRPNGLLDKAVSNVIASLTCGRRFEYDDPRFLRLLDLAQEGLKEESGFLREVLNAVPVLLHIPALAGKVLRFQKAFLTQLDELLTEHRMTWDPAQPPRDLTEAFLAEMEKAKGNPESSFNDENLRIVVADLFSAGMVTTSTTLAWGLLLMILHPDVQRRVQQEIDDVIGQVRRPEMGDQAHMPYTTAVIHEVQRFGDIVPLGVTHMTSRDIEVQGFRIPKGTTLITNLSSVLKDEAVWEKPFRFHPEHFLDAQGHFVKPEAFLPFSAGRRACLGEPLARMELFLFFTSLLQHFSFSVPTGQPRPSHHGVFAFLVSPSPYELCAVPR

[3] = molecular target: T1, Cytochrome P450 2B6 (Homo sapiens, UniProt P20813); assay: Inhibition of CYP2B6 in human liver microsomes using bupropion as substrate in presence of NADPH by LC-MS/MS analysis; type: ADME, Microsome
T1 sequence (P20813 whole entry): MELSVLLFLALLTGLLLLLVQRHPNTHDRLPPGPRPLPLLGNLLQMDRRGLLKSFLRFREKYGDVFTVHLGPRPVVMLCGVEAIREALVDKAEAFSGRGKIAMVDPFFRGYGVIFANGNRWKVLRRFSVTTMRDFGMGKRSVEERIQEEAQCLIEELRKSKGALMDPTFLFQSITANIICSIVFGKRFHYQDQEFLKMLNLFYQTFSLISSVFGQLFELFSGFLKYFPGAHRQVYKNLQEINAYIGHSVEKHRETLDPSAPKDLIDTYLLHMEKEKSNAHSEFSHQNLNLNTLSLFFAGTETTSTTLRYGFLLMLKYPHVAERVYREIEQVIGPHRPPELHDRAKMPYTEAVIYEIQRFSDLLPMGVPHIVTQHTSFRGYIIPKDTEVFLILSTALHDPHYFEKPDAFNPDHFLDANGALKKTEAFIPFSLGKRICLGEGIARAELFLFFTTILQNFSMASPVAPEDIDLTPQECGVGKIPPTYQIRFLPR

[4] = system: OVCAR-3; assay: Antitumor activity against human OVCAR-3 cells xenografted in athymic nude mouse assessed as tumor growth inhibition at 30 mg/kg, po administered once daily for 28 days relative to control; type: functional; details: OVCAR-3, 672 h, time 28 day, read-out: TGI
[5] = Hepatic blood flow in Sprague-Dawley rat at 0.5 mg/kg, iv administered as cassette dose and measured upto 24 hrs by LC-MS/MS analysis; type: ADME, organism-based; details: in vivo
[6] = Hepatic blood flow in cynomolgus monkey at 0.3 mg/kg, iv administered as cassette dose and measured upto 24 hrs by LC-MS/MS analysis; type: ADME, organism-based, Macaca fascicularis; details: in vivo
[7] = molecular target: Cytochrome P450 3A4 (Homo sapiens, UniProt P08684); assay: Inhibition of CYP3A4 in human liver microsomes using midazolam/testosterone as substrate in presence of NADPH by LC-MS/MS analysis; type: ADME, Microsome
Chain of Cytochrome P450 3A4 (P08684 whole entry): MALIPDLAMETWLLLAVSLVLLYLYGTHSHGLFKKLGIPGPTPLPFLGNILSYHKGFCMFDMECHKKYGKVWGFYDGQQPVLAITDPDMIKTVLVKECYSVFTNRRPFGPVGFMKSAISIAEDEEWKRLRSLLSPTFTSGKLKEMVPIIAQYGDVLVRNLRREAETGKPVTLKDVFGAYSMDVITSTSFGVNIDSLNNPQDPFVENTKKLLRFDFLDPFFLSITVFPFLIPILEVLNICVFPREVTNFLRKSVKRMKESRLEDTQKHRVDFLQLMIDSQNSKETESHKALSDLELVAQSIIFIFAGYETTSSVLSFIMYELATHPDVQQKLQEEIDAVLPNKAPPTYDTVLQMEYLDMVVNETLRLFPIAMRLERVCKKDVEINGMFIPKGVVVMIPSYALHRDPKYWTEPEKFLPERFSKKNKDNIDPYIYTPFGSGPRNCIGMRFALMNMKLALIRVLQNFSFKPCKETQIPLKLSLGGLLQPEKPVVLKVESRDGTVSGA

[8] = molecular target: hERG (KCNH2) (Homo sapiens, UniProt Q12809); assay: Inhibition of human ERG at 10 uM by patch clamp method relative to control; type: toxicity
Chain of hERG (KCNH2) (Q12809 whole entry): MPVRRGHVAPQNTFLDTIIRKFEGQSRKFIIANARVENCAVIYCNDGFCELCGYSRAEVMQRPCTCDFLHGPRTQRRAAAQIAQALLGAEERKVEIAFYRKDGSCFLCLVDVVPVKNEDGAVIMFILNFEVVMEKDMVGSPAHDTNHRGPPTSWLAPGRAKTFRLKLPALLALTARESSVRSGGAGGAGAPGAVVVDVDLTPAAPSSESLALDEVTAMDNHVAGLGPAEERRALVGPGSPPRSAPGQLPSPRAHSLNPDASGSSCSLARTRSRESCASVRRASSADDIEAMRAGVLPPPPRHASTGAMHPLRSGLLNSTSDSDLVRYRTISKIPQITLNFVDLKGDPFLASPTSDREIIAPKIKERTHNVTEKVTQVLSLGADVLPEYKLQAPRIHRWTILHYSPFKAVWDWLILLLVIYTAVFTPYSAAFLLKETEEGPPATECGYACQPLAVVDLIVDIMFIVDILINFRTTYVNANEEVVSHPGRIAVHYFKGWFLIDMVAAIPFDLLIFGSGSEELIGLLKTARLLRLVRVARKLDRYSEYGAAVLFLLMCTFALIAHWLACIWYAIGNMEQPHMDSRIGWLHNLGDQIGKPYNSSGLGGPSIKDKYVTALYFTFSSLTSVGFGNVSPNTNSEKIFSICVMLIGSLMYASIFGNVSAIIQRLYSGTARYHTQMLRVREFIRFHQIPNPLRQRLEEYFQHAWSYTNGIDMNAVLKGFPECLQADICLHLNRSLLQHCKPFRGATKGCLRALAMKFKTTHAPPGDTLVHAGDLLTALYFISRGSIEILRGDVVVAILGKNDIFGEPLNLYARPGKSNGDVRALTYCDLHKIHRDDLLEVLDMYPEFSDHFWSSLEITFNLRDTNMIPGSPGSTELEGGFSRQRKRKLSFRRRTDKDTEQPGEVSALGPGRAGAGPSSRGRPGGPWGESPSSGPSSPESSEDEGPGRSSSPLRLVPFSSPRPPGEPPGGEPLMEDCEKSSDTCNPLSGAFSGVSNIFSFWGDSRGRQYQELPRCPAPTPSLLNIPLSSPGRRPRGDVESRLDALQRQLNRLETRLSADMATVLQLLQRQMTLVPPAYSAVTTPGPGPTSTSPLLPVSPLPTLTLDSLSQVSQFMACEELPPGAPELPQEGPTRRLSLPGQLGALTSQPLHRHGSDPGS

[9] = molecular target: T2, Cytochrome P450 1A2 (Homo sapiens, UniProt P05177); assay: Inhibition of CYP1A2 in human liver microsomes using 7-ethoxyresorufin as substrate in presence of NADPH by LC-MS/MS analysis; type: ADME, Microsome
T2 sequence (P05177 whole entry): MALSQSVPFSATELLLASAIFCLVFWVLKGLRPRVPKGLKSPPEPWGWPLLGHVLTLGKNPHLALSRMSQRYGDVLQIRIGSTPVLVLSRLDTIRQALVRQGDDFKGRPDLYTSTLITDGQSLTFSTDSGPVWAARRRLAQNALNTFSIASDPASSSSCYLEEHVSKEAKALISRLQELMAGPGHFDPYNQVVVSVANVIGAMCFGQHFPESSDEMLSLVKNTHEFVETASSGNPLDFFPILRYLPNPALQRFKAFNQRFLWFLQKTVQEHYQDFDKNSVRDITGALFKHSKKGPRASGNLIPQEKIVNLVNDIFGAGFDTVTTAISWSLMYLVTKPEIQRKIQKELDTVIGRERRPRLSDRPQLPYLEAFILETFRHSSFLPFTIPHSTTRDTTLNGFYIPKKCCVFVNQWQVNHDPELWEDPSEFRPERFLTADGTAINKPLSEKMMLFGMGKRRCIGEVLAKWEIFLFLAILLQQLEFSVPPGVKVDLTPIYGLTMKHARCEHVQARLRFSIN

[10] = In vivo inhibition of CDK2 in athymic nude mouse assessed as reduction in retinoblastoma protein phosphorylation at 30 mg/kg, po administered once daily for 5 days and measured after 24 hrs relative to control; type: functional; details: 144 h, time 6 day
[11] = Half-life in Sprague-Dawley rat at 0.5 mg/kg, iv administered as cassette dose and measured upto 24 hrs by LC-MS/MS analysis; type: ADME, organism-based; details: in vivo
[12] = Toxicity in athymic nude mouse xenografted with human OVCAR-3 cells assessed as body weight loss at 30 mg/kg, po administered once daily for 28 days; type: organism-based; details: in vivo, 672 h, time 28 day
[13] = Volume of distribution at steady state in Sprague-Dawley rat at 0.5 mg/kg, iv administered as cassette dose and measured upto 24 hrs by LC-MS/MS analysis; type: ADME, organism-based; details: in vivo, read-out: Vdss
[14] = Toxicity in athymic nude mouse xenografted with human OVCAR-3 cells assessed as animal death at 30 mg/kg, po administered once daily for 28 days; type: organism-based; details: in vivo, 672 h, time 28 day
[15] = AUC in Sprague-Dawley rat at 3 mg/kg, po administered as cassette dose and measured upto 24 hrs by LC-MS/MS analysis; type: ADME, organism-based; details: in vivo
[16] = molecular target: T3, Cytochrome P450 2C8 (Homo sapiens, UniProt P10632); assay: Inhibition of CYP2C8 in human liver microsomes using amodiaquine as substrate in presence of NADPH by LC-MS/MS analysis; type: ADME, Microsome
T3 sequence (P10632 whole entry): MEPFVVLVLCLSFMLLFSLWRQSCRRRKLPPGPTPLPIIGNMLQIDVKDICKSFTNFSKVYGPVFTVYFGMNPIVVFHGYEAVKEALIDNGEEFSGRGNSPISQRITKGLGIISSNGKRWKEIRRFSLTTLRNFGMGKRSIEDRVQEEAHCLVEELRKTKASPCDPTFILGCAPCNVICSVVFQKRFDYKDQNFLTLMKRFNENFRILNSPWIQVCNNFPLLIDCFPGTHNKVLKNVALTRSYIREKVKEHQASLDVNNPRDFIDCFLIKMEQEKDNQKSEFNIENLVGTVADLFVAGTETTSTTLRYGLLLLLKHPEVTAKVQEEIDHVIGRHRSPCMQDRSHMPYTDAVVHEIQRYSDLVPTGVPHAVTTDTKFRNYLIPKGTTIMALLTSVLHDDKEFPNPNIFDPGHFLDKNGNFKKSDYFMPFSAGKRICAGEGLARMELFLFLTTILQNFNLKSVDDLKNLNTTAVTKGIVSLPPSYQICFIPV

[17] = Intrinsic clearance in human liver microsomes at 1 uM measured upto 30 mins by LC/MS analysis; type: ADME, Microsome; details: read-out: CLH (converted)
[18] = Cmax in cynomolgus monkey at 2 mg/kg, po administered as cassette dose and measured upto 24 hrs by LC-MS/MS analysis; type: ADME, organism-based, Macaca fascicularis; details: in vivo
[19] = Drug concentration in athymic nude mouse plasma at 30 mg/kg, po administered as […] for 5 days and measured after 24 hrs; type: ADME, organism-based; details: in vivo, 144 h, BLD = below limit of detection, time 6 day
[20] = AUC in cynomolgus monkey at 2 mg/kg, po administered as cassette dose and measured upto 24 hrs by LC-MS/MS analysis; type: ADME, organism-based, Macaca fascicularis; details: in vivo
[21] = Oral bioavailability in Sprague-Dawley rat at 3 mg/kg administered as cassette dose and measured upto 24 hrs by LC-MS/MS analysis; type: ADME, organism-based; details: in vivo
[22] = Volume of distribution at steady state in cynomolgus monkey at 0.3 mg/kg, iv administered as cassette dose and measured upto 24 hrs by LC-MS/MS analysis; type: ADME, organism-based, Macaca fascicularis; details: in vivo, read-out: Vdss
[23] = Solubility of compound in SGF by HPLC analysis
[24] = Protein binding in human plasma assessed as free fraction incubated for 2 hrs by LC-MS/MS analysis; type: ADME, cell-free
[25] = Oral bioavailability in cynomolgus monkey at 2 mg/kg administered as cassette dose and measured upto 24 hrs by LC-MS/MS analysis; type: ADME, organism-based, Macaca fascicularis; details: in vivo
[26] = Cmax in Sprague-Dawley rat at 3 mg/kg, po administered as cassette dose and measured upto 24 hrs by LC-MS/MS analysis; type: ADME, organism-based; details: in vivo
[27] = molecular target: Cytochrome P450 2C19 (Homo sapiens, UniProt P33261); assay: Inhibition of CYP2C19 in human liver microsomes using S-mephenytoin as substrate in presence of NADPH by LC-MS/MS analysis; type: ADME, Microsome
Chain of Cytochrome P450 2C19 (P33261 whole entry): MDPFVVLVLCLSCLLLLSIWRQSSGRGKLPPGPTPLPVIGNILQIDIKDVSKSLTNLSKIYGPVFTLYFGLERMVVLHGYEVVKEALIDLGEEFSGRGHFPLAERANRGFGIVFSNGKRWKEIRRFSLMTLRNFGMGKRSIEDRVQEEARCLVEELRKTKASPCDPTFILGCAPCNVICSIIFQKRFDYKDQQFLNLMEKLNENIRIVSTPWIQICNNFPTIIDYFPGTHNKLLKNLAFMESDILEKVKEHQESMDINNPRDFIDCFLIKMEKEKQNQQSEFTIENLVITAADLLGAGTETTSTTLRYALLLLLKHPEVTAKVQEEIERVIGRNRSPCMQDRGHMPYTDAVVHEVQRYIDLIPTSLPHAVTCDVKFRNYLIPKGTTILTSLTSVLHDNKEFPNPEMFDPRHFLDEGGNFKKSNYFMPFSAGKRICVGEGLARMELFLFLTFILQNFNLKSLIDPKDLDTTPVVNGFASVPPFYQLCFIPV

[28] = Apparent permeability from apical to basolateral side in human Caco-2 cells at 50 uM incubated for 120 mins by LCMS analysis
[29] = molecular target: Cytochrome P450 2C9 (Homo sapiens, UniProt P11712); assay: Inhibition of CYP2C9 in human liver microsomes using diclofenac as substrate in presence of NADPH by LC-MS/MS analysis; type: ADME, Microsome
Chain of Cytochrome P450 2C9 (P11712 whole entry): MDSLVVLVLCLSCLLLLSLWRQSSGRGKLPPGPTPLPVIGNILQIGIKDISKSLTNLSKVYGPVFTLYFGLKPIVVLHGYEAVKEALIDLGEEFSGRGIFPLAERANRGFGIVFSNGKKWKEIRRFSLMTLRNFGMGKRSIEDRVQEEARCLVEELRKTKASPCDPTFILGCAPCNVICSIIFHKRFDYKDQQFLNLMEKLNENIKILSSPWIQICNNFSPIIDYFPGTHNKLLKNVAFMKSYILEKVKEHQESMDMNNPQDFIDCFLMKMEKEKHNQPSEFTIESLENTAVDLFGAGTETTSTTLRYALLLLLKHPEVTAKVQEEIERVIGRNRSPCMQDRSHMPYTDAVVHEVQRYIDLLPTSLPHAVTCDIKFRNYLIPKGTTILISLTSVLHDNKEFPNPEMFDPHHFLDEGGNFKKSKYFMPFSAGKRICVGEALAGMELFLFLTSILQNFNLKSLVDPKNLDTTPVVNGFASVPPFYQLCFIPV

[30] = Toxicity in athymic nude mouse xenografted with human OVCAR-3 cells assessed as adverse effect at 30 mg/kg, po administered once daily for 28 days; type: organism-based; details: in vivo, 672 h, time 28 day

In the case of `CC(C)(O)Cn1cc(-c2nc(NC3CCN(S(=O)(=O)C4CC4)CC3)ncc2C(F)(F)F)cn1`, the half-life [1] is reported as 156 min, the IC50 [2] is reported as over 25 µM and the IC50 [3] is reported as over 25 µM. It also gave an inhibition in vivo at 30 mg/kg [4] of 38%, a QH [5] of 130% and a QH [6] of 9%. For the same molecule, the IC50 [7] was over 25 µM, the inhibition at 10 µM [8] was 6.6% and the IC50 [9] was over 25 µM. The inhibition in vivo at 30 mg/kg [10] was about 50%, the half-life [11] was 120 min and the Activity [12] was “Non-Toxic”. The Vd [13] was 1.8 L/kg, the Activity [14] was “Non-Toxic” and the AUC at 24 h [15] was 0.751 µM·h. The IC50 [16] was over 25 µM, the CLint scaled at 1 µM [17] was 8.33 mL/min/kg and the Cmax [18] was 962 nM. For the same molecule, the Cp [19] was “Bld”, the AUC at 24 h [20] was 5.65 µM·h and the bioavailability [21] was 51%. The Vd [22] was 0.4 L/kg, the solubility [23] was over 400 µg/mL and the fraction unbound at 2 h [24] was 0.12. For the same molecule, the bioavailability [25] was 21%, the Cmax [26] was 757 nM and the IC50 [27] was over 25 µM. The Papp A→B at 2 h, 50 µM [28] was 13 ×10⁻⁶ cm/s, the IC50 [29] was over 25 µM and the Activity [30] was “Non-Toxic”.
